Some test systems named below: SF-268; OVCAR-4; OVCAR-5; NCI-H23; SK-OV-3; SW-620; SN12C; U-251; M14; OVCAR-3; MOLT-4; Malme-3M; NCI-H460; HCC 2998; HCT-116; SNB-75; NCI-H522.
What all share (assay): inhibition of tumour cell growth, NCI panel, 48 h

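Following 48 hours of exposure in 96-well plates, responses at five concentrations were used to interpolate endpoints linearly. GI50 is the concentration that inhibits growth by half.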 Active and inactive are the calls of the source. No stated cut-off is given here; in the data, active = GI50 up to about 1.1 µM and inactive = higher.

Turning to `Cc1ccc(Oc2ccc(C)cc2N)cc1`, the GI50 in the experiment with SF-268 is 97.7 µM (inactive); in the experiment with OVCAR-4 it was 68.9 µM (inactive); in the experiment with OVCAR-5 it was 68.4 µM (inactive); with NCI-H23, 94.4 µM (inactive); in the experiment with SK-OV-3, > 100 µM (inactive); in the experiment on SW-620, > 100 µM (inactive). Besides, the GI50 is 97.7 µM (inactive) in the experiment with SN12C; 30.5 µM (inactive) with U-251; > 100 µM (inactive) with M14; 36 µM (inactive) with OVCAR-3; 53 µM (inactive) with MOLT-4; > 100 µM (inactive) in the experiment on Malme-3M. The GI50 in the experiment with NCI-H460 was > 100 µM (inactive); in the experiment with HCC 2998, > 100 µM (inactive); in the experiment with HCT-116 it was > 100 µM (inactive); with SNB-75, 16.5 µM (inactive).
For the molecule `COCCOCOC(CCCCO)c1cc(C)c(O[Si](C)(C)C(C)(C)C)c(C)c1` (stereo not drawn), the GI50 in the experiment on SF-268 is 6.05 µM (inactive); in the experiment with OVCAR-5, 13.7 µM (inactive); with NCI-H522, 1.64 µM (inactive); in the experiment on NCI-H23, 5.55 µM (inactive); in the experiment with SK-OV-3, 17.6 µM (inactive); in the experiment with SW-620, 7.31 µM (inactive). The GI50 is 2.69 µM (inactive) in the experiment on SN12C; 10.8 µM (inactive) in the experiment on U-251; 10.3 µM (inactive) with M14; 5.83 µM (inactive) with OVCAR-3; 2.86 µM (inactive) in the experiment with MOLT-4; 2.47 µM (inactive) with Malme-3M. Moreover, the values for the GI50 in the experiment with NCI-H460, in the experiment on HCC 2998 and in the experiment with SNB-75 were 5.24 µM (inactive), 7.03 µM (inactive) and 10.6 µM (inactive), respectively.
On to `CC1=C(C(=O)Nc2cccc(Cl)c2)C(c2ccccc2F)C(C(=O)Nc2cccc(Cl)c2)=C(C)N1`, for which the GI50 was 11.8 µM (inactive) in the experiment on SF-268; 5.83 µM (inactive) in the experiment on OVCAR-4; 19.3 µM (inactive) with OVCAR-5; 9.16 µM (inactive) with NCI-H522; 12.2 µM (inactive) in the experiment with NCI-H23; 21.5 µM (inactive) in the experiment with SK-OV-3. The GI50 in the experiment on SW-620 is 21.6 µM (inactive); with SN12C, 11 µM (inactive); in the experiment on U-251 it was 12.6 µM (inactive); in the experiment with M14, 5.33 µM (inactive); in the experiment on OVCAR-3, 10.8 µM (inactive); in the experiment on MOLT-4, 2.51 µM (inactive). The GI50 was 15.8 µM (inactive) with Malme-3M, 6.7 µM (inactive) with NCI-H460, 7.57 µM (inactive) in the experiment with HCC 2998 and 6.79 µM (inactive) with SNB-75.
For the molecule `COC(=O)C(=O)C(C(C)=O)C(=O)NCc1ccccc1` (stereo not drawn), the GI50 in the experiment on SF-268 was > 100 µM (inactive); in the experiment with OVCAR-4, > 100 µM (inactive); in the experiment with OVCAR-5, > 100 µM (inactive); in the experiment on NCI-H522, > 100 µM (inactive); in the experiment with NCI-H23, > 100 µM (inactive); with SW-620, 5.06 µM (inactive). Also, the GI50 in the experiment on SN12C is > 100 µM (inactive); with U-251 it was 82.2 µM (inactive); in the experiment on M14, > 100 µM (inactive); with OVCAR-3, > 100 µM (inactive); with MOLT-4, > 100 µM (inactive); with Malme-3M, > 100 µM (inactive). Besides, the GI50 in the experiment with NCI-H460, in the experiment on HCC 2998, in the experiment on HCT-116 and with SNB-75 was > 100 µM (inactive) each time.
For the molecule `CC1=NN(C(=O)Cc2ccccc2)C(=O)/C1=C\c1ccco1`, the GI50 with SF-268, with OVCAR-4, with OVCAR-5, in the experiment with NCI-H522, in the experiment on NCI-H23 and in the experiment with SW-620 was > 100 µM (inactive) each time. Besides, the GI50 in the experiment with SN12C, in the experiment on M14, in the experiment on OVCAR-3, in the experiment on MOLT-4, in the experiment on Malme-3M and with HCC 2998 was > 100 µM (inactive) throughout. The GI50 in the experiment with HCT-116 and with SNB-75 was > 100 µM (inactive) each time.
Regarding `COc1ccc2oc3c4c2c1CCC4CCC3=O` (stereo not drawn), the GI50 was 85.9 µM (inactive) with SF-268; 33 µM (inactive) in the experiment on OVCAR-4; > 100 µM (inactive) in the experiment on OVCAR-5; 58.2 µM (inactive) with NCI-H522; > 100 µM (inactive) with NCI-H23; > 100 µM (inactive) in the experiment on SK-OV-3. Moreover, the GI50 with SW-620 is > 100 µM (inactive); in the experiment on SN12C, > 100 µM (inactive); in the experiment with U-251 it was > 100 µM (inactive); with M14 it was > 100 µM (inactive); in the experiment with OVCAR-3, > 100 µM (inactive); in the experiment on MOLT-4 it was 52.8 µM (inactive). Also, the GI50 was > 100 µM (inactive) with Malme-3M, > 100 µM (inactive) in the experiment with NCI-H460, > 100 µM (inactive) in the experiment on HCC 2998 and 28.1 µM (inactive) with SNB-75.
On to `Oc1cc(-c2ccccn2)nc2cccc(F)c12`, for which the GI50 in the experiment on OVCAR-4, with OVCAR-5, with NCI-H522, in the experiment on NCI-H23, with SK-OV-3 and in the experiment with SW-620 was > 100 µM (inactive) in each case. For the same molecule, the GI50 in the experiment on SN12C was > 100 µM (inactive); in the experiment with M14 it was > 100 µM (inactive); with OVCAR-3, > 100 µM (inactive); in the experiment on MOLT-4, > 100 µM (inactive); in the experiment with NCI-H460, > 100 µM (inactive); in the experiment with HCC 2998, 0.641 µM (active). In the experiment on SNB-75, the GI50 was 51.4 µM (inactive).
In the case of `CCCN1CC=CCC1`, the GI50 in the experiment with SF-268, with OVCAR-5, with NCI-H522, in the experiment with NCI-H23, in the experiment with SK-OV-3 and with SW-620 was > 100 µM (inactive) each time. Also, the GI50 in the experiment on SN12C, in the experiment with U-251, in the experiment on M14, in the experiment on OVCAR-3, in the experiment with MOLT-4 and in the experiment with Malme-3M was > 100 µM (inactive) throughout. For the same molecule, the GI50 in the experiment with NCI-H460, in the experiment on HCC 2998, in the experiment with HCT-116 and in the experiment with SNB-75 was > 100 µM (inactive) in each case.
As to `CN(C)CCNC(=O)c1cccc2c1nc(-c1ccncc1)c1ccccc12`, the GI50 in the experiment on SF-268 was 5.53 µM (inactive); in the experiment on OVCAR-4 it was 4.01 µM (inactive); in the experiment with OVCAR-5, 4.88 µM (inactive); with NCI-H23 it was 3.07 µM (inactive); in the experiment on SK-OV-3, 5.71 µM (inactive); in the experiment with SW-620, 1.11 µM (active). Besides, the GI50 in the experiment with SN12C was 1.58 µM (inactive); in the experiment with U-251, 2.34 µM (inactive); in the experiment with M14 it was 4.83 µM (inactive); in the experiment with OVCAR-3 it was 5.35 µM (inactive); with MOLT-4 it was 0.0316 µM (active); in the experiment on NCI-H460, 0.0408 µM (active). Besides, the GI50 is 2.6 µM (inactive) with HCC 2998, 1.46 µM (inactive) in the experiment with HCT-116 and 3.36 µM (inactive) in the experiment with SNB-75.
As for `Cc1c(C(=O)/C=C/c2ccco2)[n+]([O-])c2ccccc2[n+]1[O-]`, the GI50 in the experiment on SF-268 was > 100 µM (inactive); with OVCAR-5, > 100 µM (inactive); in the experiment with NCI-H522, 58.9 µM (inactive); with NCI-H23, > 100 µM (inactive); in the experiment with SK-OV-3, > 100 µM (inactive); in the experiment on SW-620, > 100 µM (inactive). Moreover, the GI50 was > 100 µM (inactive) in the experiment on SN12C; > 100 µM (inactive) in the experiment with M14; > 100 µM (inactive) with OVCAR-3; 39.6 µM (inactive) in the experiment on MOLT-4; > 100 µM (inactive) with Malme-3M; > 100 µM (inactive) with NCI-H460. Further, the GI50 with HCC 2998, in the experiment with HCT-116 and in the experiment with SNB-75 was > 100 µM (inactive) in each case.
With `CC1(c2ccc(F)cc2)C2C(=O)NC(=O)C1C(=O)NC2=O` (stereo not drawn), the GI50 in the experiment on SF-268, in the experiment with OVCAR-4, with OVCAR-5, in the experiment on NCI-H522, in the experiment on NCI-H23 and with SK-OV-3 was > 100 µM (inactive) in each case. The GI50 in the experiment on SW-620, in the experiment with SN12C, in the experiment on M14, with OVCAR-3, in the experiment on MOLT-4 and in the experiment on Malme-3M was > 100 µM (inactive) throughout. Moreover, the GI50 in the experiment with NCI-H460, with HCC 2998 and in the experiment on SNB-75 was > 100 µM (inactive) throughout.
`CCOc1ccc2c(c1)[n+]([O-])c(S(=O)(=O)c1ccc(C)cc1)c(N)[n+]2[O-]`: the GI50 in the experiment on SF-268 is > 100 µM (inactive); in the experiment on OVCAR-4, > 100 µM (inactive); in the experiment on OVCAR-5 it was > 100 µM (inactive); with NCI-H522, 49.2 µM (inactive); in the experiment with NCI-H23, > 100 µM (inactive); with SK-OV-3, > 100 µM (inactive). In addition, the GI50 with SW-620, in the experiment with U-251, in the experiment on M14, in the experiment on OVCAR-3, with MOLT-4 and with Malme-3M was > 100 µM (inactive) in each case. Moreover, the GI50 in the experiment with NCI-H460 is > 100 µM (inactive); in the experiment with HCC 2998, > 100 µM (inactive); in the experiment with HCT-116, > 100 µM (inactive); with SNB-75, 91.6 µM (inactive).
For the molecule `COc1ccc(C(=O)Cc2c(C(=O)c3ccccc3)c3ccccc3n2C(=O)c2ccccc2)cc1`, the GI50 in the experiment on SF-268 was > 100 µM (inactive); in the experiment on OVCAR-4 it was 32.2 µM (inactive); in the experiment on OVCAR-5, > 100 µM (inactive); in the experiment on NCI-H522, 47.1 µM (inactive); with NCI-H23, 50.2 µM (inactive); in the experiment with SW-620, 29.8 µM (inactive). The GI50 was 78.2 µM (inactive) with U-251; > 100 µM (inactive) in the experiment with M14; 37.7 µM (inactive) in the experiment on OVCAR-3; 25.6 µM (inactive) in the experiment with MOLT-4; > 100 µM (inactive) in the experiment on Malme-3M; 26.4 µM (inactive) in the experiment with NCI-H460. In addition, the GI50 is > 100 µM (inactive) with HCC 2998, 37.2 µM (inactive) in the experiment with HCT-116 and 18.3 µM (inactive) in the experiment on SNB-75.

Source of the values: ChEMBL document CHEMBL1201862, “PubChem BioAssay data set” (2004).
